Where “and” joins values, the source holds several entries; their conditions need not be identical. Identical values can stand only once.
Key:
[1] = DPPH radical scavenging assay; conditions: methanol, 517 nm; for DPPH/sca% 100 μM: compound 100 μM; for DPPH/sca% 50 μM: compound 50 μM; for DPPH/sca% 10 μM: compound 10 μM
Description: (§1) All new synthetic compounds 4a–o were tested for their potential inhibitory activity of AKR1B1 isolated from rat lenses. Besides, the inhibitory activity of aldehyde reductase (AKR1A1) isolated from rat kidneys was also investigated to evaluate the selectivity for AKR1B1. The enzyme AKR1A1 is closely related to AKR1B1, and plays an important role in physiological detoxification. […] Additionally, the antioxidant activity was assessed by using the model reaction with the stable free radical of 2,2-diphenyl-1-picrylhydrazyl (DPPH) according to the modified method, which was first employed by Blois[23].
The antioxidant activity of all synthesised compounds was determined with the DPPH model reaction and […] (Trolox) was employed as a positive control (Table 2).
To investigate the antiradical activity of target compounds in a homogeneous system, a method based on the scavenging of the stable free radical DPPH was employed. A 100 μL of methanolic solution of various compounds with different concentrations was added to 1 mL DPPH methanolic solution (2.5 × 10^-5 g/mL) and 1.9 ml methanol solution to give final concentrations of 0.1, 0.05, 0.01 mM for the tested compounds, respectively. After vortexing thoroughly and leaving for 30 min at room temperature, the optical density was measured at λ 517 nm using the Shimadzu UV-1800 spectrophotometer. The tested compounds and the reference (Trolox) were dissolved in methanol, and after 240 min (steady state), the percentage of DPPH radical scavenging was determined by the equation as shown below. The experiments were performed in triplicate.

[2] = molecular target: T1, AKR1B1 isolated from rat lenses (Rattus norvegicus, UniProt P07943); assay: AKR1B1 (aldose reductase) inhibition, NADPH oxidation with D,L-glyceraldehyde as substrate; assay type: biochemical; conditions: rat lens enzyme, pH 6.2, 30 °C
T1 construct: AKR1B1 isolated from rat lenses; from tissue; host or cells: rat lenses
Description: as §1, with “Besides,” for “All new synthetic compounds 4a–o were tested for their potential inhibitory activity of AKR1B1 isolated from rat lenses. Besides,”
The AKR1B1 inhibition activity was performed in a reaction mixture containing 0.25 mL NADPH (0.10 mM), 0.25 mL sodium phosphate buffer (pH = 6.2, 0.1 M), 0.1 mL enzyme extract, 0.15 mL deionized water, and 0.25 mL D,L-glyceraldehyde (10 mM) as substrate in a final volume of 1 mL. Before adding to D,L-glyceraldehyde, the reaction mixture was incubated at 30 °C for 10 min, and then the substrate was added to start the reaction, which was monitored for 4 min.
(§2) The inhibitory activity of the newly synthesized compounds against AKR1B1 and AKR1A1 was assayed by adding 5 μL of the inhibitor solution to the reaction mixture described above. All compounds were dissolved in dimethyl sulfoxide (DMSO) and diluted with deionized H2O. To correct for the nonenzymatic oxidation of NADPH, the rate of NADPH oxidation in the presence of all the reaction mixture components except the substrate was subtracted from each experimental rate. The inhibitory effect of the synthetic compounds was routinely estimated at 10^-4 M (the concentration is referenced to that of the compound in the reaction mixture).

[3] = molecular target: T2, AKR1A1 isolated from rat kidneys (Rattus norvegicus, UniProt P51635); assay: AKR1A1 (aldehyde reductase) inhibition, NADPH oxidation with sodium D-glucuronate as substrate; assay type: biochemical; conditions: rat kidney enzyme, pH 7.2, 37 °C
T2 construct: aldehyde reductase (AKR1A1) isolated from rat kidneys; from tissue; host or cells: rat kidneys
T2 sequence (P51635 1-325): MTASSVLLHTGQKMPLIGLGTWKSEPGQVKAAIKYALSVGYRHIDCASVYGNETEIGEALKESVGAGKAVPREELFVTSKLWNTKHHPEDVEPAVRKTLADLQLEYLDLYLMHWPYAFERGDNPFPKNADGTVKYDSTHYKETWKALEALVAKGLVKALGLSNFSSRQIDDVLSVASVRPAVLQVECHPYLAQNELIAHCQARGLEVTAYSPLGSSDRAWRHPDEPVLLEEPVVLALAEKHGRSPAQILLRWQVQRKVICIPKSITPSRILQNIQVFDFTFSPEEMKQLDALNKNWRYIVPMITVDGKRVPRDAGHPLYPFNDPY
Description: as §1
The AKR1A1 inhibition activity was performed in a reaction mixture containing 0.25 mL NADPH (0.12 mM), 0.1 mL enzyme extract, 0.25 mL sodium phosphate buffer (pH = 7.2, 0.1 M), 0.15 mL deionized water, and 0.25 mL sodium D-glucuronate (20 mM) as substrate in a final volume of 1 mL. Before adding to sodium D-glucuronate, the reaction mixture was incubated at 37 °C for 10 min, and then the substrate was added to start the reaction, which was monitored for 4 min.
as §2

SMILES | IC50 [2] | melting point | IC50 [3] | DPPH/sca% 100 μM [1] | DPPH/sca% 50 μM [1] | DPPH/sca% 10 μM [1]
O=C(O)Cn1c(=O)c(Oc2ccccc2)nc2cccnc21 [4a, 2-(3-oxo-2-phenoxypyrido[3,2-b]pyrazin-4(3H)-yl)acetic acid] | 8.57 ± 0.523 µM | 239 to 244 °C | 26.9 ± 1.45 µM | 6.9 ± 1.2% | – | –
O=C(O)Cn1c(=O)c(Oc2cc(O)cc(O)c2)nc2cccnc21 [4j, 2-(2-(3,5-dihydroxyphenoxy)-3-oxopyrido[3,2-b]pyrazin-4(3H)-yl)acetic acid] | 0.087 ± 0.007 µM | 231 to 237 °C | 20.8 ± 1.5 µM | 95.0 ± 0.9% | 77.2 ± 1.5% | 45.3 ± 1.9%
O=C(O)Cn1c(=O)c(Oc2cc(O)cc(O)c2)nc2cc(Cl)cnc21 [4k, 2-(7-chloro-2-(3,5-dihydroxyphenoxy)-3-oxopyrido[3,2-b]pyrazin-4(3H)-yl)acetic acid] | 0.023 ± 0.003 µM | 232 to 236 °C | 18.4 ± 1.34 µM | 94.8 ± 1.1% | 76.4 ± 0.9% | 49.1 ± 2.4%
O=C(O)Cn1c(=O)c(Oc2cc(O)cc(O)c2)nc2cc(Br)cnc21 [4l, 2-(7-bromo-2-(3,5-dihydroxyphenoxy)-3-oxopyrido[3,2-b]pyrazin-4(3H)-yl)acetic acid] | 0.056 ± 0.005 µM | 233 to 235 °C | 19.8 ± 1.41 µM | 95.3% and 95.3 ± 1.2% | 80.6% and 80.6 ± 2.0% | 46.8% and 46.8 ± 1.5%
COc1c(O)cc(Oc2nc3cccnc3n(CC(=O)O)c2=O)cc1O [4n, 2-(2-(3,5-dihydroxy-4-methoxyphenoxy)-3-oxopyrido[3,2-b]pyrazin-4(3H)-yl)acetic acid] | 2.36 ± 0.184 µM | 235 to 241 °C | 25.8 ± 1.65 µM | 65.7 ± 0.9% | 40.8 ± 1.6% | –
O=C(O)Cn1c(=O)c(Oc2cc(O)c(O)c(O)c2)nc2cccnc21 [4o, 2-(3-oxo-2-(3,4,5-trihydroxyphenoxy)pyrido[3,2-b]pyrazin-4(3H)-yl)acetic acid] | 0.859 ± 0.058 µM | 241 to 246 °C | 21.7 ± 1.47 µM | 88.5 ± 1.4% | 65.2 ± 1.9% | 23.4 ± 2.0%
CC(/C=C1\SC(=S)N(CC(=O)O)C1=O)=C\c1ccccc1 [Epalrestat, reference compound] | – | – | 55.7 ± 3.29 µM | – | – | –
Cc1c(C)c2c(c(C)c1O)CCC(C)(C(=O)O)O2 (centres unmarked) [Trolox, […], reference compound] | – | – | – | 96.7 ± 0.8% | 89.8 ± 1.0% | 85.9 ± 0.6%

Further lines, with some results ahead:

IC50 [2] | melting point | IC50 [3] | SMILES | DPPH/sca% 100 μM [1] | DPPH/sca% 50 μM [1] | DPPH/sca% 10 μM [1]
2.68 ± 0.199 µM | 234 to 242 °C | 19.8 ± 1.32 µM | COc1ccc(Oc2nc3cccnc3n(CC(=O)O)c2=O)cc1 [4b, 2-(2-(4-methoxyphenoxy)-3-oxopyrido[3,2-b]pyrazin-4(3H)-yl)acetic acid] | 18.9 ± 0.8% | – | –
5.68 ± 0.608 µM | 241 to 251 °C | 17.6 ± 1.02 µM | COc1ccc(Oc2nc3cccnc3n(CC(=O)O)c2=O)cc1OC [4c, 2-(2-(3,4-dimethoxyphenoxy)-3-oxopyrido[3,2-b]pyrazin-4(3H)-yl)acetic acid] | 21.2 ± 1.5% | – | –
4.3 ± 0.288 µM | 241 to 247 °C | 21.5 ± 1.81 µM | COc1cc(OC)cc(Oc2nc3cccnc3n(CC(=O)O)c2=O)c1 [4d, 2-(2-(3,5-dimethoxyphenoxy)-3-oxopyrido[3,2-b]pyrazin-4(3H)-yl)acetic acid] | 25.9 ± 1.3% | – | –
7.57 ± 0.431 µM | 235 to 243 °C | 20.9 ± 1.21 µM | COc1cc(Oc2nc3cccnc3n(CC(=O)O)c2=O)cc(OC)c1OC [4e, 2-(3-oxo-2-(3,4,5-trimethoxyphenoxy)pyrido[3,2-b]pyrazin-4(3H)-yl)acetic acid] | 17.8 ± 0.9% | – | –
0.121 ± 0.01 µM | 231 to 239 °C | 15.9 ± 0.781 µM | O=C(O)Cn1c(=O)c(Oc2ccc(O)cc2)nc2cccnc21 [4f, 2-(2-(4-hydroxyphenoxy)-3-oxopyrido[3,2-b]pyrazin-4(3H)-yl)acetic acid] | 37.7 ± 1.0% | – | –
2.5 ± 0.203 µM | 232 to 236 °C | 19.3 ± 1.81 µM | COc1ccc(Oc2nc3cccnc3n(CC(=O)O)c2=O)cc1O [4g, 2-(2-(3-hydroxy-4-methoxyphenoxy)-3-oxopyrido[3,2-b]pyrazin-4(3H)-yl)acetic acid] | 54.8 ± 1.6% | 21.5 ± 1.2% | –
0.305 ± 0.022 µM | 231 to 236 °C | 16.9 ± 0.692 µM | O=C(O)Cn1c(=O)c(Oc2ccc(O)c(O)c2)nc2cccnc21 [4h, 2-(2-(3,4-dihydroxyphenoxy)-3-oxopyrido[3,2-b]pyrazin-4(3H)-yl)acetic acid] | 74.6 ± 1.4% | 44.1 ± 2.3% | –
2.85 ± 0.031 µM | 229 to 232 °C | 15.1 ± 0.924 µM | COc1cc(O)cc(Oc2nc3cccnc3n(CC(=O)O)c2=O)c1 [4i, 2-(2-(3-hydroxy-5-methoxyphenoxy)-3-oxopyrido[3,2-b]pyrazin-4(3H)-yl)acetic acid] | 78.4 ± 0.7% | 45.2 ± 1.8% | –
4.53 ± 0.258 µM | 237 to 244 °C | 31.6 ± 3.06 µM | COc1cc(Oc2nc3cccnc3n(CC(=O)O)c2=O)cc(O)c1OC [4m, 2-(2-(3-hydroxy-4,5-dimethoxyphenoxy)-3-oxopyrido[3,2-b]pyrazin-4(3H)-yl)acetic acid] | 56.9 ± 1.8% | 35.9 ± 1.1% | –

Reference: publication PMC6711126, “Novel 2-phenoxypyrido[3,2-b]pyrazin-3(4H)-one derivatives as potent and selective aldose reductase inhibitors with antioxidant activity” (Journal of Enzyme Inhibition and Medicinal Chemistry, 2019)
